# Results as given in PubChem BioAssay (NCI).
#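 The compound was tested at five concentrations on cells cultured in 96-well plates, with a 48-hour exposure period. TGI: concentration producing complete growth inhibition.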
# Tests used:
# Test in all cases: NCI anticancer screen, dose series, 48 h
# [1] = tested on: SF-295 CNS
# [2] = tested on: OVCAR-3 ovarian
# [3] = tested on: K-562 leukemia
# [4] = tested on: RXF 393 renal
# [5] = tested on: A498 renal
# [6] = tested on: HT29 colon
# [7] = tested on: HCT-116 colon
# [8] = tested on: NCI-H23 lung
# [9] = tested on: UACC-257 melanoma
# [10] = tested on: MALME-3M melanoma
# [11] = tested on: M19-MEL melanoma
# [12] = tested on: SR leukemia
# [13] = tested on: SK-MEL-2 melanoma
# [14] = tested on: SK-OV-3 ovarian
# [15] = tested on: XF 498 CNS
# [16] = tested on: NCI-H522 lung
# [17] = tested on: CCRF-CEM leukemia
# [18] = tested on: NCI-H460 lung
# [19] = tested on: SF-268 CNS
# [20] = tested on: HCC-2998 colon
# [21] = tested on: HCT-15 colon
# [22] = tested on: KM20L2 colon
# [23] = tested on: OVCAR-4 ovarian
# [24] = tested on: OVCAR-5 ovarian
# [25] = tested on: SW-620 colon
# [26] = tested on: KM12 colon
# [27] = tested on: M14 melanoma
# [28] = tested on: COLO 205 colon
# [29] = tested on: NCI-H226 lung
# [30] = tested on: U251 CNS
# [31] = tested on: 786-0 renal
# [32] = tested on: HOP-92 NSCLC
# [33] = tested on: HOP-62 NSCLC
# [34] = tested on: MOLT-4 leukemia
# [35] = tested on: SF-539 CNS
# [36] = tested on: DLD-1 colon
# [37] = tested on: SN12C renal
# [38] = tested on: RPMI-8226 leukemia
# [39] = tested on: HL-60(TB) leukemia
# [40] = tested on: A549 NSCLC
# [41] = tested on: SK-MEL-28 melanoma
# [42] = tested on: LOX IMVI melanoma
# [43] = tested on: IGROV1 ovarian
# [44] = tested on: ACHN renal
# [45] = tested on: UACC-62 melanoma
# [46] = tested on: SNB-19 CNS
# [47] = tested on: HOP-18 NSCLC
# [48] = tested on: UO-31 renal
# [49] = tested on: DMS 273 small cell lung
# [50] = tested on: LXFL 529 NSCLC
# [51] = tested on: EKVX NSCLC
# [52] = tested on: TK-10 renal
# [53] = tested on: OVCAR-8 ovarian
structure (smiles),measurement,setting,value
C[C@@H](CC(O)C1OC1(C)C)[C@@H]1CC[C@]2(C)C3=CCC4C(C)(C)C(O)CC[C@]4(C)C3CCC12C (stereo partly drawn),TGI,[1],40.8 µM
same,TGI,[2],> 100 µM
same,TGI,[3],73.1 µM
same,TGI,[4],42.1 µM
same,TGI,[5],77.3 µM
same,TGI,[6],24.8 µM
same,TGI,[7],31.3 µM
same,TGI,[8],75.4 µM
same,TGI,[9],41.2 µM
same,TGI,[10],31.1 µM
same,TGI,[11],49.9 µM
same,TGI,[12],> 100 µM
same,TGI,[13],57.4 µM
same,TGI,[14],58.9 µM
same,TGI,[15],46.4 µM
same,TGI,[16],32.6 µM
same,TGI,[17],> 100 µM
same,TGI,[18],> 100 µM
same,TGI,[19],85.4 µM
same,TGI,[20],> 100 µM
same,TGI,[21],> 100 µM
same,TGI,[22],48.6 µM
same,TGI,[23],> 100 µM
same,TGI,[24],> 100 µM
same,TGI,[25],> 100 µM
same,TGI,[26],> 100 µM
same,TGI,[27],42.1 µM
same,TGI,[28],60.7 µM
same,TGI,[29],45.3 µM
same,TGI,[30],> 100 µM
same,TGI,[31],33.9 µM
same,TGI,[32],41.9 µM
same,TGI,[33],> 100 µM
same,TGI,[34],> 100 µM
same,TGI,[35],54.4 µM
same,TGI,[36],> 100 µM
same,TGI,[37],> 100 µM
same,TGI,[38],> 100 µM
same,TGI,[39],24.9 µM
same,TGI,[40],32.9 µM
same,TGI,[41],41.9 µM
same,TGI,[42],> 100 µM
same,TGI,[43],> 100 µM
same,TGI,[44],88.8 µM
same,TGI,[45],33.6 µM
same,TGI,[46],> 100 µM
same,TGI,[47],80.7 µM
same,TGI,[48],63.5 µM
same,TGI,[49],29.2 µM
same,TGI,[50],25.6 µM
same,TGI,[51],> 100 µM
same,TGI,[52],61.6 µM
same,TGI,[53],> 100 µM
